Measurements taken from ChEMBL document CHEMBL1136982, “Discovery of 1-benzoyl-3-cyanopyrrolo[1,2-a]quinolines as a new series of apoptosis inducers using a cell- and caspase-based high-throughput screening assay. 2: Structure-activity relationships of the 4-, 5-, 6-, 7- and 8-positions” (Bioorg Med Chem Lett, 2009).
Calls of active or inactive are those of the source. The calls are words filed in the database; no cut-off is given here.

How the values were obtained:
T47D [1] = test: Induction of apoptosis in human T47D cells measured after 48 hrs by cell and caspase based HTS assay; format: functional
HCT-116 [2] = test: Induction of apoptosis in human HCT116 cells measured after 48 hrs by cell and caspase based HTS assay; format: functional; details: HCT-116, 48 h
SNU-398 [3] = test: Induction of apoptosis in human SNU398 cells measured after 48 hrs by cell and caspase based HTS assay; format: functional; details: SNU-398, 48 h
[4] = Inhibition of tubulin polymerization
SNU-398 [5] = test: Growth inhibition of human SNU398 cells after 48 hrs; format: functional; details: SNU-398, 48 h
[6] = Inhibition of tubulin polymerization up to 50 uM
T47D [7] = test: Cell cycle arrest in human T47D cells by accumulation at G2/M phase after 24 to 48 hrs by flow cytometry; format: functional, cell-based
T47D [8] = test: Growth inhibition of human T47D cells after 48 hrs; format: functional
HCT-116 [9] = test: Growth inhibition of human HCT116 cells after 48 hrs; format: functional; details: HCT-116, 48 h

SMILES | EC50 (T47D [1]) [nM] | EC50 (HCT-116 [2]) [nM] | EC50 (SNU-398 [3]) [nM] | IC50 [4] [nM] | GI50 (SNU-398 [5]) [nM] | Activity [6] | Activity (T47D [7]) | GI50 (T47D [8]) [nM] | GI50 (HCT-116 [9]) [nM]
Cc1cc2c(C#N)cc(C(=O)c3ccccc3)n2c2ccccc12 | 520 | 310 | 220 | < 5000 | – | – | – | – | –
Cc1cc2ccccc2n2c(C(=O)c3ccccc3)cc(C#N)c12 | 5800 | > 10000 | > 10000 | – | – | – | – | – | –
N#Cc1cc(C(=O)c2ccc(N)cc2)n2c1ccc1ccccc12 | – | – | – | < 5000 | – | – | – | – | –
N#Cc1cc(C(=O)c2ccc([N+](=O)[O-])cc2)n2c1ccc1c(Cl)cccc12 | 62 | > 10000 | > 10000 | – | – | – | – | – | –
N#Cc1cc(C(=O)c2cccc(N)c2)n2c1ccc1c(Cl)cccc12 | 210 | 5600 | 5000 | – | – | – | – | – | –
N#Cc1cc(C(=O)c2cccc(O)c2)n2c1ccc1c(Cl)cccc12 | 280 | 2700 | 2600 | – | 2600 | inactive | Active | 160 | 5900
N#Cc1cc(C(=O)c2ccccc2)n2c1ccc1c(OCCN3CCOCC3)cccc12 | > 10000 | > 10000 | > 10000 | – | – | – | – | – | –
N#Cc1cc(C(=O)c2ccccc2)n2c1ccc1c(O)cccc12 | > 10000 | > 10000 | > 10000 | – | – | – | – | – | –
N#Cc1cc(C(=O)c2ccc(-n3ccnc3)cc2)n2c1ccc1c(Cl)cccc12 | 290 | 1900 | 1400 | – | – | – | – | – | –
N#Cc1cc(C(=O)c2ccccc2)n2c1ccc1c(Cl)cccc12 | 83 | 1900 | > 10000 | – | – | inactive | Active | – | –
CC[C@]1(O)C[C@@H]2CN(CCc3c([nH]c4ccccc34)[C@@](C(=O)OC)(c3cc4c(cc3OC)N(C)[C@H]3[C@@](O)(C(=O)OC)[C@H](OC(C)=O)[C@]5(CC)C=CCN6CC[C@]43[C@@H]65)C2)C1 [VINBLASTINE] | 32 | 36 | 26 | – | 5 | – | – | 7 | 10
COc1cccc(C(=O)c2cc(C#N)c3ccc4c(Cl)cccc4n23)c1 | 80 | 3700 | 1500 | – | 4800 | – | – | 18 | 8600
N#Cc1cc(C(=O)c2ccc(F)cc2)n2c1ccc1c(Cl)cccc12 | 53 | > 10000 | > 10000 | – | – | inactive | Active | – | –
N#Cc1cc(C(=O)c2ccc(-n3ccnc3)cc2)n2c1ccc1ccccc12 | – | – | – | < 5000 | – | – | – | – | –
Cc1ccc2c(ccc3c(C#N)cc(C(=O)c4ccccc4)n32)c1 | > 10000 | > 10000 | > 10000 | – | – | – | – | – | –
N#Cc1cc(C(=O)c2ccccc2)n2c1ccc1cc(Cl)ccc12 | > 10000 | > 10000 | > 10000 | – | – | – | – | – | –
CN(C)CCOc1cccc2c1ccc1c(C#N)cc(C(=O)c3ccccc3)n12 | 2800 | 6000 | 4900 | – | – | – | – | – | –
Cc1ccc2ccc3c(C#N)cc(C(=O)c4ccccc4)n3c2c1 | 280 | > 10000 | 5000 | – | – | – | – | – | –
N#Cc1cc(C(=O)c2ccc(N)cc2)n2c1ccc1c(Cl)cccc12 | 150 | 3800 | 1400 | – | – | – | – | – | –
N#Cc1cc(C(=O)c2cccc([N+](=O)[O-])c2)n2c1ccc1c(Cl)cccc12 | 150 | > 10000 | > 10000 | – | – | – | – | – | –
N#Cc1cc(C(=O)c2ccccc2)n2c1ccc1c([N+](=O)[O-])cccc12 | > 10000 | > 10000 | > 10000 | – | – | – | – | – | –
CC(=O)O[C@H]1C(=O)[C@@]2(C)[C@H]([C@H](OC(=O)c3ccccc3)[C@]3(O)C[C@H](OC(=O)[C@H](O)[C@@H](NC(=O)c4ccccc4)c4ccccc4)C(C)=C1C3(C)C)[C@]1(OC(C)=O)CO[C@@H]1C[C@@H]2O [PACLITAXEL] | 37 | 18 | 9 | – | 61 | – | – | 26 | 60
